From patent US20130252821A1, “METHODS AND COMPOSITIONS FOR THE TREATMENT AND DIAGNOSIS OF DISEASES CHARACTERIZED BY VASCULAR LEAK, HYPOTENSION, OR A PROCOAGULANT STATE” (Beth Israel Deaconess Medical Center, Inc., priority 2005, published 2013)

How the values were obtained:
HMVEC monolayers = assay: Immunofluorescence of endothelial architecture (F-actin, VE-cadherin); type: cell-based, human; conditions: for reversal of Ang-2 induced thick actin stress fibers and paracellular gaps: Ang-2 100 ng/ml, inhibitor 10 μM, 5 hours
Description: HMVEC were grown to confluence on glass coverslips coated with 1% gelatin. The cells were fixed for 10 minutes in 4% paraformaldehyde in PBS, incubated for 5 min in 0.5% Triton X-100 in PBS. After blocking, the monolayers were processed for staining with anti-VE-cadherin monoclonal antibody (BD Pharmingen, San Diego, Calif.) and Alexa Fluoro 488 goat anti-mouse IgG, rhodamine phalloidin (Molecular Probe, Eugene, Oreg.) for F-actin staining and TOPRO-3-iodine (Molecular Probe) for nuclear staining. Fluorescence images were obtained using a Bio Rad MRC confocal fluorescence microscope. For human subject serum experiments, serum was diluted to 10% with EBM-2 and filtered with low protein binding PVDF membrane (0.22 μm, Millipore Corp) prior to application on endothelial cell monolayers.

[1] = test system: myosin light chain (MLC) phosphorylation in HMVECs; assay: MLC phosphorylation assay (Western blot); type: cell-based, human; conditions: for effect on Ang-2-induced phosphorylation of MLC: inhibitor 10 μM
Description: After signal starvation with 0.25% FBS EBM-2 for 24 h, cells were treated with 100 ng/ml Ang-2 or vehicle for 0, 1, 3, and 6 hours. Phosphorylated myosin light chain (MLC-p) (phospho-serine 19) and GAPDH were detected by Western blot analysis. For human subject serum effects on HMVECs, serum was diluted to 5% with EBM-2 and filtered with low protein binding PVDF membrane (0.22 μm, Millipore Corp, Bedford, Mass.). Anti-MLC-phospho-serine-19 Ab was obtained from Abcam Inc.

p190RhoGAP [2] = assay: In vivo delivery of siRNA, p190RhoGAP in mouse lung (Western); conditions: 10 μg siRNA, hydrodynamic tail vein delivery
Description: Mice were treated as above and lungs were harvested, fixed in 10% formalin, embedded in paraffin, sectioned, and stained with hematoxilin and eosin. In Vivo Delivery of siRNA: Delivery of siRNA into mice was performed by TransIT® Hydrodynamic delivery solution (Mires, Madision, Wis.) per the manufacturer's instruction. Mice were injected with either 10 μg control siRNA or 10 μg p190RhoGAP siRNA in 2 nil delivery solution injected into the tail vein over 7 seconds. Four days later, p190RhoGAP knockdown was confirmed by lysing organs in RIPA buffer and performing Western analysis as outlined above. In vivo permeability and histological examination were performed as described above.

Rac1 = Rac1 activity assay (pull-down); type: cell-based, human; conditions: p190RhoGAP siRNA
Description: (§1) These were performed and quantified using the commercially available kit according to the manufacturer's instruction (Cytoskeleton, Denver, Colo.). After signal starvation, HMVEC-L were treated with vehicle, Ang-1 (100 ng/ml) with or without inhibitor for the indicated time and harvested with lysis buffer. Following a brief centrifugation to remove cell debris, lysates from the cells containing equivalent protein concentrations were incubated for 60 minutes with 40 μL slurry of a GST-fusion protein composed of Rac1 or RhoA effector proteins coupled to agarose beads. After washing with lysis buffer, samples were subjected to immunoblotting and detected with anti-Rac1 or anti-RhoA antibody (Santa Cruz Biotechnology, Santa Cruz, Calif.). Whole cell lysates were also run to determine the total amount of Rac1 or RhoA protein.

HMVEC-L monolayer = assay: Measurement of endothelial permeability in vitro (FITC-albumin); type: cell-based, human; conditions: p190RhoGAP siRNA
Description: (§2) Coster Transwell membranes (Corning Inc. Corning, N.Y.) were coated with 0.5% Gelatin and cells were grown until confluence. Vehicle or proteins with FITC-albumin (1 mg/ml) was added to the luminal chamber for 4 hours, and samples were taken from both the luminal and abluminal chamber for fluorometry analysis. The readings were converted with the use of a standard curve to albumin concentration. These concentrations were then used in the following equation to determine the permeability coefficient of albumin (Pa).
(§3) [A] is abluminal concentration; t is time in seconds; A is area of membrane in cm^2; V is volume of abluminal chamber; and [L] is luminal concentration. siRNA Transfection: HMVEC-Ls were seeded and control small interfering RNA (siRNA) (Ambion, Ausin, Tex.) or siRNA directed to human p190RhoGAP (5′-[…]-3′ SEQ ID NO: 5 and 5′-[…]-3′ SEQ ID NO: 6) was transfected using SilentFect Lipid reagent (Bio-Rad) according to the manufacturer's instructions. The cells were used for each experiment 3 days after transfection. Almost 90-100% cells were transfected with siRNA (checked by fluorescent labeled siRNA). Down-regulation of p190RhoGAP was verified by immunoblotting. We tested two different siRNA for the experiment and obtained similar results.

RhoA [3] = assay: Rho activity assay (pull-down) in HMVEC-L; type: cell-based, human; conditions: p190RhoGAP siRNA
Description: as §1

[4] = test system: mice (female FVB strain), lung; assay: In vivo permeability assay (Evans blue, LPS); set-up: species or system mouse; conditions: p190RhoGAP siRNA, endotoxin plus Ang-1
Description: Mice (8-12 weeks old, female FVB strain) were pretreated with Ang-1 (10 mcg, ip). 8 hours after the first Ang-1 injection, the second dose of Ang-1 (10 mcg, ip) and LPS (100 μg, ip) were co-injected. Lung permeability was assessed 16 hours after the second injection. Mice were anesthetized with Avertin (2,2,2-Tribromoethanol) and 2% Evans blue (50 μl) was then injected into the retro-orbital sinus. Ten minutes after Evans blue injection, mice were sacrificed and perfused with PBS with 2 mM EDTA for 10 minutes through a cannula placed in the right ventricle. […] Organs were then harvested and homogenized in 1.5 nil formamide. Evans blue was extracted by incubating the samples at 70° C. for 24 hours, and the concentration of Evans blue was estimated by dual-wavelength spectrophotometer (620 and 740 nm). The following formula was used to correct optical densities (E) for contamination with heme pigments: E620 (corrected)=E620−(1.426XE740+0.030).

p190RhoGAP [5] = assay: siRNA knockdown of p190RhoGAP in HMVEC-L (immunoblot); type: cell-based, human
Description: as §3

healthy adult mice [6] = assay: Evans blue permeability assay after systemic Ang-2; type: in vivo, mouse; conditions: Ang-2 10 μg i.p., 16 hours
Description: Mice were injected with 10 μg of Ang-2 or vehicle intraperitoneal (i.p.) and, after 16 hours, were anesthetized with Avertin (2,2,2-tribromoethanol). 2% Evans blue (50 μl) was then injected into the retro-orbital sinus. (In preliminary experiments with control mice, n=6, we confirmed that the retro-orbital sinus provided a route of intravascular injection that allowed near-100% delivery of Evans blue in a reproducible fashion.) 10 minutes after Evans blue injection, mice were sacrificed and perfused with PBS for 10 minutes through a cannula placed in the right ventricle. Blood and PBS were vented through an incision in the vena cava. […] Washout of intravascular contents was also confirmed histologically after 10 minutes PBS perfusion. After homogenization in 1.5 ml formamide, Evans blue was extracted by incubating the samples at 70° C. for 24 hours, and the concentration of Evans blue was estimated by dual-wavelength spectroscopy to correct for heme E620 nm (corrected)=E620 nm−(1.426*E740 nm+0.030).

healthy adult mice [7] = assay: Lung wet-to-dry weight ratio; type: in vivo, mouse; conditions: Ang-2 treatment for 16 hours
Description: Lung wet weight (W) was determined immediately after removal of the right lung. Lung dry weight (D) was determined after the lung had been dried in an oven at 50° C. for 24 hours. The W/D ratio was calculated by dividing the wet weight by the dry weight.

HMVEC monolayer = assay: FITC-albumin permeability assay; type: cell-based, human; conditions: Ang-2 400 ng/ml, 8 hours
Description: as §2, with “HMVEC monolayer permeability was determined with the use of FITC-labeled bovine serum albumin (Sigma) as described elsewhere (Tinsley et al., Am. J. Physiol Cell Physiol. 279: C1285-1289 (2000)). Coster” for “Coster”, “fibronectin” for “0.5% Gelatin”, “Ang-2 (400 ng/ml)” for “proteins”, “(final 1” for “(1”, “8” for “4”
where [A] is abluminal concentration; t is time in seconds; A is area of membrane in cm2; V is volume of abluminal chamber; and [L] is luminal concentration. siRNA transfection of endothelial cells: HMVECs were seeded on 10 cm dishes for Western blot (or on 1% gelatin-coated coverslips for immunohistochemistry experiments) 24 hour before experiments. […] of validated, annealed small interfering RNA (siRNA) (Ambion, Inc. Austin Tex.) directed to human Tie-2 was transfected using silentFect Lipid reagent (Bio-Rad) according to manufacturer's instructions. Three days after transfection, cells were used for experiments. […]

Tie-2 = Tie-2 phosphorylation (immunoprecipitation and Western blot); type: cell-based, human; conditions: HMVECs stimulated with Ang-2 100 ng/ml
Description: 200 μg of total protein were incubated with anti-Tie2 antibody for 3 hours, followed by incubation with protein A sepharose (Zymed, San Francisco, Calif.) for 2 hours at 4° C. After washing the beads, proteins were eluted by heating in SDS-sample buffer and detected by Western blot analysis with Anti-phospho-tyrosine (clone 4G10, Upstate Cell Signaling Solutions) as described before.

RhoA [8] = assay: Rho activity pull-down assay; type: cell-based, human; conditions: Ang-2 100 ng/ml
Description: RhoA activity assay was performed and quantified using the RhoA activation assay kit according to the manufacturer's instruction (Cytoskeleton, Denver, Colo.). Lysates from control and Ang-2-treated cells containing equivalent protein concentrations were rotated for 60 minutes with 40 μl slurry of a GST-fusion protein composed of the Rho-binding domain of the specific RhoA effector rhotekin coupled to agarose beads. Beads were collected by centrifugation and washed three times with lysis buffer. Whole cell lysates from both control and Ang-2-treated cells were also run to determine baseline levels of total RhoA protein. Separated proteins were transferred to PVDF and immunoblotted with a monoclonal antibody to RhoA (Santa Cruz Biotechnology, Santa Cruz, Calif.).

healthy adult mice [9] = assay: Lung histology after systemic Ang-2; type: in vivo, mouse; conditions: 3 hour after systemic Ang-2 administration
Description: Lungs were harvested, fixed in 10% formalin, embedded in paraffin, sectioned, and stained with hematoxylin and eosin.

O=S(=O)(c1cccc2c(I)cccc12)N1CCCNCC1 [ML-7, reference compound]
reversal of Ang-2 induced thick actin stress fibers and paracellular gaps (HMVEC monolayers): partially reversed
effect on Ang-2-induced phosphorylation of MLC ([1]; Ang-2 100 ng/ml): partially inhibited

CC(C)=C[C@H](O)C1=C[C@@H](O)[C@@H]2O[C@@H]2C1=O [Panepoxydone]
effect on Ang-2 mediated MLC phosphorylation ([1]; panepoxydone added to EC monolayers): marked inhibition

C[C@@H](N)[C@H]1CC[C@H](C(=O)Nc2ccncc2)CC1 [Y27632, reference compound]
reversal of Ang-2 induced thick actin stress fibers and paracellular gaps (HMVEC monolayers): completely reversed
effect on Ang-2-induced phosphorylation of MLC ([1]; Ang-2 100 ng/ml): completely abolished

p190RhoGAP siRNA: siRNA directed to human p190RhoGAP (SEQ ID NO: 5 and 6) (chain 1 GGAUUGUGUGGAAUGUAAG; chain 2 CUUACAUUCCACACAAUCC; listed as RNA, chemistry not given here) [reference compound]
p190RhoGAP expression in lung tissue (p190RhoGAP [2]): diminished p190RHoGAP expression
effect on Ang-1-induced Rac1 activation (Rac1): did not affect
effect on basal permeability (HMVEC-L monolayer): little effect
effect on rescue by Ang-1 (HMVEC-L monolayer; endotoxin plus Ang-1): prevent the rescue effect of Ang-1
effect on Ang-1-induced RhoA inhibition (RhoA [3]): abolish
effect on protection by Ang-1 in the lung [4]: sufficient to block the protective effect of Ang-1
block of p190RhoGAP expression (p190RhoGAP [5]): 90%

B1: Ang-2: Human recombinant angiopoietin-2 purchased from R&D systems; Tie-2 ligand (protein, listed as Homo sapiens)
chain: MWQIVFFTLSCDLVLAAAYNNFRKSMDSIGKKQYQVQHGSCSYTFLLPEMDNCRSSSSPYVSNAVQRDAPLEYDDSVQRLQVLENIMENNTQWLMKLENYIQDNMKKEMVEIQQNAVQNQTAVMIEIGTNLLNQTAEQTRKLTDVEAQVLNQTTRLELQLLEHSLSTNKLEKQILDQTSEINKLQDKNSFLEKKVLAMEDKHIIQLQSIKEEKDQLQVLVSKQNSIIEELEKKIVTATVNNSVLQKQQHDLMETVNNLLTMMSTSNSAKDPTVAKEEQISFRDCAEVFKSGHTTNGIYTLTFPNSTEEIKAYCDMEAGGGGWTIIQRREDGSVDFQRTWKEYKVGFGNPSGEYWLGNEFVSQLTNQQRYVLKIHLKDWEGNEAYSLYEHFYLSSEELNYRIHLKGLTGTAGKISSISQPGNDFSTKDGDNDKCICKCSQMLTGGWWFDACGPSNLNGMYYPQRQNTNKFNGIKWYYWKGSGYSLKATTMMIRPADF
extravasated Evans blue in intestines versus vehicle (healthy adult mice [6]): trend toward increased permeability
extravasated Evans blue in livers versus vehicle (healthy adult mice [6]): twofold increase
extravasated Evans blue in lungs versus vehicle (healthy adult mice [6]): threefold increase
actin stress fibers and intercellular gaps (HMVEC monolayers; recombinant human Ang-2 100 ng/ml alone, HMVECs): induced the formation of thick actin stress fibers and intercellular gaps
lung wet/dry weight (W/D) ratio (healthy adult mice [7]): 6.13±0.03
increase in permeability (Pa of FITC-albumin) compared with control (HMVEC monolayer): approximately 20%
effect on Tie-2 phosphorylation (Tie-2): inhibitory effect
MLC phosphorylation on stimulation with Ang-2 alone ([1]; Ang-2 100 ng/ml, serum-starved HMVECs): elevated at 3 hours and 6 hours
active form of RhoA (Rho-GTP) (RhoA [8]): increased the active form of RhoA
time of peak Rho-GTP (RhoA [8]): peaking between 30 minutes and 1 hour
lung histology (healthy adult mice [9]): increase in congestion and early extravasation into the interstitium
